Results as given in PubChem BioAssay (NCI).
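Cultured in 96-well plates, cells were exposed to test compound for 48 hours across five concentrations. GI50: concentration for 50% inhibition of growth. TGI: total growth inhibition.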

How the values were obtained:
Test in all cases: NCI tumour cell line growth inhibition, 48 h
[1] = tested on: 786-0 renal
[2] = tested on: A498 renal
[3] = tested on: A549 NSCLC
[4] = tested on: ACHN renal
[5] = tested on: BT-549 breast
[6] = tested on: CAKI-1 renal
[7] = tested on: CCRF-CEM leukemia
[8] = tested on: COLO 205 colon
[9] = tested on: DU-145 prostate
[10] = tested on: EKVX NSCLC
[11] = tested on: HCC-2998 colon
[12] = tested on: HCT-116 colon
[13] = tested on: HCT-15 colon
[14] = tested on: HL-60(TB) leukemia
[15] = tested on: HOP-62 NSCLC
[16] = tested on: HOP-92 NSCLC
[17] = tested on: HS 578T breast
[18] = tested on: HT29 colon
[19] = tested on: IGROV1 ovarian
[20] = tested on: K-562 leukemia
[21] = tested on: KM12 colon
[22] = tested on: LOX IMVI melanoma
[23] = tested on: M14 melanoma
[24] = tested on: MALME-3M melanoma
[25] = tested on: MCF7 breast
[26] = tested on: MDA-MB-231 breast
[27] = tested on: MDA-MB-435
[28] = tested on: MOLT-4 leukemia
[29] = tested on: NCI-H226 lung
[30] = tested on: NCI-H23 lung
[31] = tested on: NCI-H460 lung
[32] = tested on: NCI-H522 lung
[33] = tested on: NCI/ADR-RES ovarian
[34] = tested on: OVCAR-3 ovarian
[35] = tested on: OVCAR-4 ovarian
[36] = tested on: OVCAR-5 ovarian
[37] = tested on: OVCAR-8 ovarian
[38] = tested on: PC-3 prostate
[39] = tested on: RPMI-8226 leukemia
[40] = tested on: RXF 393 renal
[41] = tested on: SF-268 CNS
[42] = tested on: SF-295 CNS
[43] = tested on: SF-539 CNS
[44] = tested on: SK-MEL-2 melanoma
[45] = tested on: SK-MEL-28 melanoma
[46] = tested on: SK-MEL-5 melanoma
[47] = tested on: SK-OV-3 ovarian
[48] = tested on: SN12C renal
[49] = tested on: SNB-19 CNS
[50] = tested on: SNB-75 CNS
[51] = tested on: SR leukemia
[52] = tested on: SW-620 colon
[53] = tested on: T-47D breast
[54] = tested on: TK-10 renal
[55] = tested on: U251 CNS
[56] = tested on: UACC-257 melanoma
[57] = tested on: UACC-62 melanoma
[58] = tested on: UO-31 renal

Work on `Cc1ccc(C)c(N2CCN(c3ccncc3N)CC2)c1` yielded a GI50 [1] of 20.5 µM, a TGI [1] of 58.1 µM and a GI50 [2] of 3.65 µM. The TGI [2] was 25.9 µM, the GI50 [3] was 17.5 µM and the TGI [3] was over 100 µM. For the same compound, the GI50 [4] was 11.9 µM, the TGI [4] was over 100 µM and the GI50 [5] was 21.9 µM. It also gave a TGI [5] of over 100 µM, a GI50 [6] of 13.4 µM and a TGI [6] of 83.9 µM. For the same compound, the GI50 [7] was 21.5 µM, the TGI [7] was 94.3 µM and the GI50 [8] was 13.8 µM. It also gave a TGI [8] of 27.1 µM, a GI50 [9] of 17.9 µM and a TGI [9] of 64.8 µM. The GI50 [10] was 10.8 µM, the TGI [10] was 84.8 µM and the GI50 [11] was 15.7 µM. It also gave a TGI [11] of 31.8 µM, a GI50 [12] of 11.9 µM and a TGI [12] of over 100 µM. For the same compound, the GI50 [13] was 5.61 µM, the TGI [13] was over 100 µM and the GI50 [14] was 15.9 µM. It also gave a TGI [14] of 54.9 µM, a GI50 [15] of 26.9 µM and a TGI [15] of over 100 µM. It also gave a GI50 [16] of 12.3 µM, a TGI [16] of 46.2 µM and a GI50 [17] of 14.8 µM. It also gave a TGI [17] of 38.4 µM, a GI50 [18] of 11.2 µM and a TGI [18] of 26.3 µM. The GI50 [19] was 23.9 µM, the TGI [19] was over 100 µM and the GI50 [20] was 8.67 µM. The TGI [20] was 57.1 µM, the GI50 [21] was 15.1 µM and the TGI [21] was 47.1 µM. It also gave a GI50 [22] of 20.6 µM, a TGI [22] of 61.1 µM and a GI50 [23] of 23 µM. For the same compound, the TGI [23] was 62.1 µM, the GI50 [24] was 17.6 µM and the TGI [24] was 40.7 µM. It also gave a GI50 [25] of 10.3 µM, a TGI [25] of 29.6 µM and a GI50 [26] of 14.3 µM. It also gave a TGI [26] of 36.9 µM, a GI50 [27] of 14.9 µM and a TGI [27] of 36.3 µM. The GI50 [28] was 25.6 µM, the TGI [28] was 91.2 µM and the GI50 [29] was 17.2 µM. It also gave a TGI [29] of 67 µM, a GI50 [30] of 12.1 µM and a TGI [30] of 61 µM. For the same compound, the GI50 [31] was 13.7 µM, the TGI [31] was 31.9 µM and the GI50 [32] was 9.97 µM. For the same compound, the TGI [32] was 26.7 µM, the GI50 [33] was 14.5 µM and the TGI [33] was over 100 µM. It also gave a GI50 [34] of 12.2 µM, a TGI [34] of 58.8 µM and a GI50 [35] of 19.1 µM. For the same compound, the TGI [35] was over 100 µM, the GI50 [36] was 22.1 µM and the TGI [36] was over 100 µM. The GI50 [37] was 20.2 µM, the TGI [37] was over 100 µM and the GI50 [38] was 14.2 µM. It also gave a TGI [38] of 84.7 µM, a GI50 [39] of 11.7 µM and a TGI [39] of 35.5 µM. The GI50 [40] was 9.31 µM, the TGI [40] was 36.4 µM and the GI50 [41] was 24.9 µM. The TGI [41] was over 100 µM, the GI50 [42] was 11.1 µM and the TGI [42] was 38.5 µM. For the same compound, the GI50 [43] was 15.4 µM, the TGI [43] was 56.9 µM and the GI50 [44] was 15.6 µM. For the same compound, the TGI [44] was 31.2 µM, the GI50 [45] was 19.6 µM and the TGI [45] was 40.8 µM. The GI50 [46] was 11.7 µM, the TGI [46] was 24.4 µM and the GI50 [47] was 21.9 µM. For the same compound, the TGI [47] was 73.5 µM, the GI50 [48] was 20.9 µM and the TGI [48] was over 100 µM. It also gave a GI50 [49] of 28.8 µM, a TGI [49] of over 100 µM and a GI50 [50] of 16.6 µM. It also gave a TGI [50] of 59 µM, a GI50 [51] of 15.6 µM and a TGI [51] of 52.6 µM. The GI50 [52] was 5.13 µM, the TGI [52] was 24.6 µM and the GI50 [53] was 3.23 µM. The TGI [53] was 30.3 µM, the GI50 [54] was 16.7 µM and the TGI [54] was 49.8 µM. The GI50 [55] was 4.78 µM, the TGI [55] was 97.4 µM and the GI50 [56] was 14.4 µM. For the same compound, the TGI [56] was 34.6 µM, the GI50 [57] was 13.9 µM and the TGI [57] was 30.8 µM. The GI50 [58] was 17.2 µM and the TGI [58] was 96.3 µM.
In the case of `CC1CCc2c(C(=O)Nc3ncc(Cc4cccc([N+](=O)[O-])c4)s3)csc2C1` (stereo unspecified), the GI50 [1] is reported as 1.18 µM, the TGI [1] is reported as over 100 µM and the GI50 [2] is reported as 0.267 µM. For the same compound, the TGI [2] was 0.864 µM, the GI50 [3] was 0.944 µM and the TGI [3] was over 100 µM. For the same compound, the GI50 [4] was 0.937 µM, the TGI [4] was over 100 µM and the GI50 [5] was 1.25 µM. It also gave a TGI [5] of over 100 µM, a GI50 [6] of 0.431 µM and a TGI [6] of over 100 µM. For the same compound, the GI50 [7] was 0.612 µM, the TGI [7] was over 100 µM and the GI50 [8] was 0.37 µM. For the same compound, the TGI [8] was 19.6 µM, the GI50 [9] was 1.05 µM and the TGI [9] was over 100 µM. The GI50 [10] was 1.11 µM, the TGI [10] was over 100 µM and the GI50 [11] was 1.51 µM. It also gave a TGI [11] of over 100 µM, a GI50 [12] of 0.468 µM and a TGI [12] of over 100 µM. The GI50 [13] was 0.389 µM, the TGI [13] was over 100 µM and the GI50 [14] was 0.324 µM. For the same compound, the TGI [14] was 3.8 µM, the GI50 [15] was 0.795 µM and the TGI [15] was over 100 µM. For the same compound, the GI50 [16] was 2.68 µM, the TGI [16] was over 100 µM and the GI50 [17] was 0.72 µM. It also gave a TGI [17] of over 26.2 µM, a GI50 [18] of 0.38 µM and a TGI [18] of over 100 µM. The GI50 [19] was 0.753 µM, the TGI [19] was over 100 µM and the GI50 [20] was 0.213 µM. For the same compound, the TGI [20] was over 100 µM, the GI50 [21] was 0.442 µM and the TGI [21] was over 100 µM. The GI50 [22] was 0.48 µM, the TGI [22] was over 100 µM and the GI50 [23] was 0.4 µM. The TGI [23] was over 100 µM, the GI50 [24] was 1 µM and the TGI [24] was over 100 µM. For the same compound, the GI50 [25] was 0.268 µM, the TGI [25] was over 100 µM and the GI50 [26] was 1.03 µM. It also gave a TGI [26] of over 100 µM, a GI50 [27] of 0.133 µM and a TGI [27] of 0.45 µM. The GI50 [28] was 0.575 µM, the TGI [28] was over 100 µM and the GI50 [29] was 1.96 µM. It also gave a TGI [29] of over 100 µM, a GI50 [30] of 1.83 µM and a TGI [30] of over 100 µM. For the same compound, the GI50 [31] was 0.491 µM, the TGI [31] was over 100 µM and the GI50 [32] was 0.387 µM. The GI50 [33] was 0.46 µM, the TGI [33] was over 100 µM and the GI50 [34] was 0.391 µM. It also gave a TGI [34] of 2.25 µM, a GI50 [35] of 1.64 µM and a TGI [35] of over 100 µM. For the same compound, the GI50 [36] was 1.56 µM, the TGI [36] was over 100 µM and the GI50 [37] was 1.42 µM. It also gave a TGI [37] of over 100 µM, a GI50 [38] of 0.618 µM and a TGI [38] of over 100 µM. The GI50 [39] was 1.14 µM, the TGI [39] was over 100 µM and the GI50 [40] was 0.938 µM. The TGI [40] was 4.02 µM, the GI50 [41] was 1.53 µM and the TGI [41] was over 100 µM. The GI50 [42] was 0.4 µM, the TGI [42] was over 100 µM and the GI50 [43] was 0.548 µM. It also gave a TGI [43] of 1.93 µM, a GI50 [44] of 0.586 µM and a TGI [44] of over 100 µM. For the same compound, the GI50 [45] was 3.66 µM, the TGI [45] was over 100 µM and the GI50 [46] was 0.476 µM. For the same compound, the TGI [46] was over 100 µM, the GI50 [47] was 0.436 µM and the TGI [47] was over 100 µM. The GI50 [48] was 1.49 µM, the TGI [48] was over 100 µM and the GI50 [49] was 0.678 µM. The TGI [49] was over 100 µM, the GI50 [50] was 0.369 µM and the TGI [50] was 1.66 µM. It also gave a GI50 [51] of 0.176 µM, a TGI [51] of over 100 µM and a GI50 [52] of 0.414 µM. For the same compound, the TGI [52] was over 100 µM, the GI50 [53] was 0.653 µM and the TGI [53] was over 100 µM. It also gave a GI50 [54] of 5.04 µM, a TGI [54] of over 100 µM and a GI50 [55] of 0.523 µM. It also gave a TGI [55] of over 100 µM, a GI50 [56] of 3.77 µM and a TGI [56] of over 100 µM. For the same compound, the GI50 [57] was 0.373 µM, the TGI [57] was over 100 µM and the GI50 [58] was 0.815 µM. For the same compound, the TGI [58] was over 100 µM.
